Laboratory results from paper PMC9786170, “The Pharmacological Potential of Novel Melittin Variants from the Honeybee and Solitary Bees against Inflammation and Cancer” (Toxins, 2022).

Assays:
RAW264.7 cells = assay: Cell viability assay (WST-8/Orangu formazan) in RAW264.7 cells; type: cell-based, murine; details: RAW264.7, 25 µg/mL, 24 h, WST-8 formazan absorbance, vehicle = 100%, n = 3
Description: Figure 1 Toxicity characterization of cells treated with melittin peptides. (A,B) For the viability assay, RAW264.7 (A) or HEK293T (B) cells were treated with bee venom compounds in the indicated concentrations for 24 h. Cells were incubated with WST-8 and the formed formazan was detected by absorbance measurements. (C) For the proliferation assay, HMEC-1 cells were grown in low density and treated after 24 h with the indicated peptide (25 µg/mL) for 72 h. Cells were stained with crystal violet solution. The amount of DNA-bound crystal violet was detected by absorbance measurements. (D) The number of sub-diploidic cells was determined by staining with propidium iodide (PI) and quantified to assess apoptosis of HUVECs. Data are expressed as mean ± SEM. (A) n = 3, (B) n = 4, (C) n = 2–3, (D) n = 2. * p ≤ 0.05 versus control.
For assessing the cytotoxicity of all peptides, various cell types and assays were utilized. To determine the cell viability of HEK293T and RAW246.7 cells, the Orangu^TM assay (Cell Guidance Systems Ltd., Cambridge, UK) was used, as previously described. 2 × 10^5 HEK293T or 2 × 10^5 RAW246.7 were seeded in 96-well plates. Different concentrations (0, 0.25, 2.5, 25 µg/mL) of melittin peptides or vehicle (DMSO) were added. After 24 h of incubation at 37 °C and 5% CO2, 10 µL of Orangu^TM cell counting solution was added and incubated for 60 min. After incubation, absorbance was measured at a wavelength of 450 nm with a reference at 650 nm at an EnSpire 2300 Multimode Plate Reader (Perkin Elmer, Lübeck, Germany). To calculate cell viability, the absorbance of vehicle-treated cells was set to 100%, and the melittin derivates-treated samples were correlated to them.

HEK293T cells [1] = assay: cAMP induction assay (pGloSensor-22F); type: cell-based, human; details: 2.5 and 25 µg/mL, pGloSensor luminescence, n = 4
Description: (§1) Figure 3 Melittin derivates alter the cellular concentration of cyclic adenosine monophosphate (cAMP). (A) For the cAMP induction assay, HEK293T cells transfected with pGloSensor-22F cAMP plasmid were treated with melittin derivates (0.25, 2.5, 25 µg/mL) in presence of the pGloSensor cAMP reagent, and luminescence was detected. (B) For the cAMP inhibition assay, HEK293T cells transfected with pGloSensor-22F cAMP plasmid were treated with melittin derivates (0.25, 2.5, 25 µg/mL) in presence of the pGloSensor cAMP reagent, stimulated with 5 µM forskolin, and luminescence was detected. Data are expressed as mean ± SEM. n = 4, * p ≤ 0.05 versus control.
(§2) HEK293T cells were transfected with pGloSensor-22F cAMP plasmid (E2301, Promega, Walldorf, Germany) using turbofect reagent (Thermofisher Scientific, Frankfurt am Main, Germany). […] For the induction assay (step one), the luminescence was detected (background, 3 measurements every 5 min) and then the melittin peptides (0.25, 2.5, 25 µg/mL) or 5 µM forskolin were added. The luminescence was detected (3 measurements every 5 min) using the plate reader (Spark, Tecan, Männedorf, Switzerland). For the inhibition assay (step tow), the melittin peptide-treated cells were then incubated with 5 µM forskolin and the luminescence was detected (3 measurements every 5 min). […]

HEK293T cells [2] = assay: cAMP inhibition assay (forskolin-stimulated, pGloSensor-22F); type: cell-based, human; details: 5 µM forskolin, 2.5 and 25 µg/mL, pGloSensor luminescence, n = 4
Description: as §1, §2

[3] = cited from earlier work
Text: Therefore, the identification of biologically active derivatives of melittins with minimal toxicity to healthy cells is important for developing new pharmacological treatment options. In this study, we applied a broad in vitro screening approach of melittin variants from the honeybee and earlier solitary bee lineages to assess whether these ...

[4] = test system: TNF-activated EC monolayer; assay: Adhesion of THP-1 leukocytes onto TNF-activated endothelial cells; type: cell-based, human; details: peptide 30 min, TNF 10 ng/mL 24 h, THP-1 adhesion 5 min, static, fluorescence, n = 2
Description: Figure 4 Influence of melittin derivates on inflammation-associated cell functions. (A,B) For the NO induction assay (A), RAW264.7 cells were treated with melittin peptides in the indicated concentrations for 24 h. For the NO inhibition assay (B), RAW264.7 cells were pretreated with melittin peptides in the indicated concentrations for 30 min and then stimulated with 100 ng/mL LPS for 24 h. NO was detected in the supernatant using the Griess method. […] THP-1 cell adhesion under static conditions. HUVECs were grown to confluence, preincubated with bee venoms for 30 min, and activated with TNF (10 ng/mL) for 24 h. For the leukocyte adhesion assay, untreated THP-1 cells were stained with CellTracker Green and were allowed to adhere to the treated HUVECs for 5 min. The adhesion of leukocytes onto Ecs was quantified by fluorescence measurements for all cell adhesion experiments. Data are expressed as means ± SEM, (A,B) n = 3, (C) n = 2. * p ≤ 0.05 vs. TNF (positive) control.
For the investigation of leukocyte adhesion under static conditions, HMEC-1 cells were seeded into 96-well plates and cultured until they became confluent. […] Then, the fluorescence signal from adherent THP-1 cells was measured by a Tecan Infinite F200 Pro microplate reader (Tecan, Männedorf, Switzerland) (excitation: 485 nm, emission: 535 nm).

Substance	reduction of cell viability (RAW264.7 cells)	prevention of cAMP synthesis, unstimulated cells (HEK293T cells [1])	prevention of cAMP synthesis, forskolin-stimulated cells (HEK293T cells [2])	degradation in the blood [3]	adhesion of THP-1 leukocytes onto endothelial cells [4]
melittin [Melt, reference compound]	more than 90%	almost completely prevented cAMP synthesis	almost completely prevented cAMP synthesis	fast degradation in the blood	
xylopin [Xac4]					reducing the inflammation-associated interaction of endothelial cells with leukocytes
